PubChem BioAssay (NCI)
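Cultured in 96-well plates, cells were exposed to test compound for 48 hours across five concentrations. GI50 marks 50% less growth. At the TGI there is no net growth.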

Experiments:
Assay in all cases: NCI anticancer screen, dose series, 48 h
[1] = system: DU-145 prostate
[2] = system: BT-549 breast
[3] = system: NCI-H522 lung
[4] = system: SW-620 colon
[5] = system: T-47D breast
[6] = system: A498 renal
[7] = system: ACHN renal
[8] = system: SF-268 CNS
[9] = system: A549 NSCLC
[10] = system: HCT-15 colon
[11] = system: CAKI-1 renal
[12] = system: U251 CNS
[13] = system: COLO 205 colon
[14] = system: UACC-62 melanoma
[15] = system: RPMI-8226 leukemia
[16] = system: MDA-MB-231 breast
[17] = system: SNB-19 CNS
[18] = system: SK-MEL-5 melanoma
[19] = system: OVCAR-5 ovarian
[20] = system: NCI-H460 lung
[21] = system: MDA-MB-435
[22] = system: HCC-2998 colon
[23] = system: MCF7 breast
[24] = system: HOP-92 NSCLC
[25] = system: M14 melanoma
[26] = system: MALME-3M melanoma
[27] = system: SR leukemia
[28] = system: HL-60(TB) leukemia
[29] = system: NCI/ADR-RES ovarian
[30] = system: SF-295 CNS
[31] = system: UACC-257 melanoma
[32] = system: KM12 colon
[33] = system: MOLT-4 leukemia
[34] = system: SK-MEL-2 melanoma
[35] = system: NCI-H226 lung
[36] = system: SK-OV-3 ovarian
[37] = system: HS 578T breast
[38] = system: LOX IMVI melanoma
[39] = system: OVCAR-8 ovarian
[40] = system: HT29 colon
[41] = system: TK-10 renal
[42] = system: HCT-116 colon
[43] = system: RXF 393 renal
[44] = system: SF-539 CNS
[45] = system: CCRF-CEM leukemia
[46] = system: IGROV1 ovarian
[47] = system: HOP-62 NSCLC
[48] = system: SK-MEL-28 melanoma
[49] = system: 786-0 renal
[50] = system: UO-31 renal
[51] = system: SN12C renal
[52] = system: OVCAR-3 ovarian
[53] = system: PC-3 prostate
[54] = system: OVCAR-4 ovarian
[55] = system: SNB-75 CNS
[56] = system: K-562 leukemia
[57] = system: NCI-H23 lung

Cn1cc(C2=C(c3c4n(c5ccccc35)CCCCC4)C(=O)NC2=O)c2ccccc21
GI50 [1]: 5.4 µM | TGI [1]: > 17.3 µM | GI50 [2]: > 11.7 µM | TGI [2]: > 25 µM | GI50 [3]: 1.02 µM | TGI [3]: 8.14 µM | GI50 [4]: 2.19 µM | TGI [4]: > 25 µM | GI50 [5]: 8.64 µM | TGI [5]: > 25 µM | GI50 [6]: 1.05 µM | TGI [6]: 19.4 µM | GI50 [7]: 6.05 µM | TGI [7]: > 25 µM | GI50 [8]: 4.9 µM | TGI [8]: > 25 µM | GI50 [9]: 3.72 µM | TGI [9]: > 25 µM | GI50 [10]: 1.69 µM | TGI [10]: > 25 µM | GI50 [11]: 2.53 µM | TGI [11]: > 20.2 µM | GI50 [12]: 6.61 µM | TGI [12]: > 25 µM | GI50 [13]: 4.56 µM | TGI [13]: > 18.8 µM | GI50 [14]: 1.27 µM | TGI [14]: > 25 µM | GI50 [15]: 6.88 µM | TGI [15]: > 19.2 µM | GI50 [16]: 6.42 µM | TGI [16]: > 25 µM | GI50 [17]: > 18.1 µM | TGI [17]: > 25 µM | GI50 [18]: 2.66 µM | TGI [18]: 13.1 µM | GI50 [19]: > 19.5 µM | TGI [19]: > 25 µM | GI50 [20]: 6.51 µM | TGI [20]: > 25 µM | GI50 [21]: 0.7 µM | TGI [21]: 3.01 µM | GI50 [22]: 12.4 µM | TGI [22]: > 25 µM | GI50 [23]: 1.36 µM | TGI [23]: > 25 µM | GI50 [24]: 1.48 µM | TGI [24]: > 25 µM | GI50 [25]: 4.69 µM | TGI [25]: > 25 µM | GI50 [26]: > 11.5 µM | TGI [26]: > 25 µM | GI50 [27]: 1.19 µM | TGI [27]: > 20.9 µM | GI50 [28]: 1.39 µM | TGI [28]: 16.2 µM | GI50 [29]: 2.17 µM | TGI [29]: > 25 µM | GI50 [30]: 1.31 µM | TGI [30]: > 14.7 µM | GI50 [31]: > 25 µM | TGI [31]: > 25 µM | GI50 [32]: 2.97 µM | TGI [32]: > 25 µM | GI50 [33]: 7.04 µM | TGI [33]: > 25 µM | GI50 [34]: 2.12 µM | TGI [34]: > 18.8 µM | GI50 [35]: 12 µM | TGI [35]: > 25 µM | GI50 [36]: 7.11 µM | TGI [36]: > 25 µM | GI50 [37]: 1.7 µM | TGI [37]: 19.8 µM | GI50 [38]: 9.4 µM | TGI [38]: > 25 µM | GI50 [39]: 10.7 µM | TGI [39]: > 25 µM | GI50 [40]: 2.57 µM | TGI [40]: > 25 µM | GI50 [41]: 6.38 µM | TGI [41]: > 25 µM | GI50 [42]: 4.21 µM | TGI [42]: > 25 µM | GI50 [43]: 1.42 µM | TGI [43]: 7.23 µM | GI50 [44]: 2.86 µM | TGI [44]: 15.5 µM | GI50 [45]: 5.21 µM | TGI [45]: > 22.7 µM | GI50 [46]: 3.55 µM | TGI [46]: > 25 µM | GI50 [47]: > 12.5 µM | TGI [47]: > 25 µM | GI50 [48]: 12.6 µM | TGI [48]: > 25 µM | GI50 [49]: 7.76 µM | TGI [49]: > 25 µM | GI50 [50]: 5.75 µM | TGI [50]: > 25 µM | GI50 [51]: 9.88 µM | TGI [51]: > 25 µM | GI50 [52]: 1.21 µM | TGI [52]: 8.05 µM | GI50 [53]: 3.2 µM | TGI [53]: > 25 µM | GI50 [54]: 7.32 µM | TGI [54]: > 25 µM | GI50 [55]: 1.4 µM | TGI [55]: 11.6 µM | GI50 [56]: 1.38 µM | TGI [56]: > 25 µM | GI50 [57]: 10.6 µM | TGI [57]: > 25 µM
